Data from PubChem BioAssay AID248 (DTP/NCI, 2004).
Several values for one entry are separate records, joined by “and”; a condition that tells them apart may be missing. Equal entries are not always repeated. Toxic doses and inconclusive results are not listed. Cut-off read from the data, not from the text of the source: active = T/C of 150% or more; inactive = T/C below 125%.

System: L1210 leukemia ip in BDF1 mice, survival T/C
Assay: NCI In Vivo Anticancer Drug Screen. Data for tumor model L1210 Leukemia (intraperitoneal) in B6D2F1 (BDF1) mice
Details: endpoint: mean survival time, higher = longer survival
Procedure, shortened: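 Transplanted-tumor mice were given test agent; controls received vehicle only. Survival readings from the two groups were divided (treated over control).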

[1] = dose: 100.0 mg/kg/injection, schedule: Q01DX009 (ip), vehicle: Klucel (hydroxypropylcellulose) (HPC)
[2] = dose: 200.0 mg/kg/injection, schedule: Q01DX009 (ip), vehicle: Klucel (hydroxypropylcellulose) (HPC)
[3] = dose: 400.0 mg/kg/injection, schedule: Q01DX009 (ip), vehicle: Klucel (hydroxypropylcellulose) (HPC)
[4] = dose: 50.0 mg/kg/injection, schedule: Q01DX009 (ip), vehicle: Klucel (hydroxypropylcellulose) (HPC)
[5] = dose: 100.0 mg/kg/injection, schedule: Q04DX003 (ip), vehicle: Klucel (hydroxypropylcellulose) (HPC)
[6] = dose: 200.0 mg/kg/injection, schedule: Q04DX003 (ip), vehicle: Klucel (hydroxypropylcellulose) (HPC)
[7] = dose: 400.0 mg/kg/injection, schedule: Q04DX003 (ip), vehicle: Klucel (hydroxypropylcellulose) (HPC)
[8] = dose: 100.0 mg/kg/injection, schedule: Q01DX001 (ip), vehicle: saline
[9] = dose: 200.0 mg/kg/injection, schedule: Q01DX001 (ip), vehicle: saline
[10] = dose: 400.0 mg/kg/injection, schedule: Q01DX001 (ip), vehicle: saline
[11] = dose: 100.0 mg/kg/injection, schedule: Q04DX003 (ip), vehicle: saline with Tween-80
[12] = dose: 200.0 mg/kg/injection, schedule: Q04DX003 (ip), vehicle: saline with Tween-80
[13] = dose: 400.0 mg/kg/injection, schedule: Q04DX003 (ip), vehicle: saline with Tween-80
[14] = dose: 100.0 mg/kg/injection, schedule: Q01DX009 (ip), vehicle: saline

Measured: T/C

CC(I)CNc1ccc(C(=O)O)c(O)c1 (stereo not given)
inactive: dose: 100.0 mg/kg/injection, schedule: Q04DX003 (ip), vehicle: gum acacia 97 % of control | dose: 200.0 mg/kg/injection, schedule: Q04DX003 (ip), vehicle: gum acacia 89 % of control | dose: 400.0 mg/kg/injection, schedule: Q04DX003 (ip), vehicle: gum acacia 94 % of control

Nc1ccc(C(=O)NO)cc1
inactive: dose: 62.0 mg/kg/injection, schedule: Q03HX024 (ip), vehicle: saline with Tween-80 101 % of control | [1] 98 % of control | dose: 125.0 mg/kg/injection, schedule: Q03HX024 (ip), vehicle: saline with Tween-80 97 % of control | [2] 98 % of control | dose: 200.0 mg/kg/injection, schedule: Q01DX Z (ip), vehicle: carboxymethylcellulose (CMC) 118 % of control | dose: 200.0 mg/kg/injection, schedule: Q01DX Z (ip), vehicle: saline 117 % of control and 123 % of control | dose: 300.0 mg/kg/injection, schedule: Q01DX Z (ip), vehicle: carboxymethylcellulose (CMC) 115 % of control | [3] 108 % of control | dose: 443.0 mg/kg/injection, schedule: Q01DX Z (ip), vehicle: saline 119 % of control | dose: 675.0 mg/kg/injection, schedule: Q01DX Z (ip), vehicle: saline 91 % of control | dose: 800.0 mg/kg/injection, schedule: Q01DX009 (ip), vehicle: Klucel (hydroxypropylcellulose) (HPC) 106 % of control

CCOC(=O)C(Cc1cc(C(C)(C)C)c(O)c(C(C)(C)C)c1)(NC=O)C(=O)OCC
inactive: [4] 103 % of control | [1] 100 % of control | [2] 96 % of control

CC(C)(CS(C)(=O)=O)C(=O)OCC(=O)c1ccccc1
inactive: [5] 108 % of control | [6] 105 % of control | [7] 105 % of control

CC1COCC(C)OCO1 (stereo not given)
inactive: dose: 50.0 mg/kg/injection, schedule: Q01DX009 (ip), vehicle: acetone 102 % of control | dose: 100.0 mg/kg/injection, schedule: Q01DX009 (ip), vehicle: acetone 102 % of control | dose: 100.0 mg/kg/injection, schedule: Q04DX003 (ip), vehicle: acetone 103 % of control | dose: 200.0 mg/kg/injection, schedule: Q01DX009 (ip), vehicle: acetone 101 % of control | dose: 200.0 mg/kg/injection, schedule: Q04DX003 (ip), vehicle: acetone 94 % of control | dose: 400.0 mg/kg/injection, schedule: Q04DX003 (ip), vehicle: acetone 114 % of control

OCCN(CCO)c1nnc(-c2ccccc2)o1
inactive: [8] 102 % of control | [9] 94 % of control and 90 % of control | [10] 101 % of control and 91 % of control

CC(C)CS.[Pb]
inactive: dose: 100.0 mg/kg/injection, schedule: Q04DX002 (ip), vehicle: gum acacia 93 % of control | dose: 200.0 mg/kg/injection, schedule: Q04DX002 (ip), vehicle: gum acacia 93 % of control | dose: 400.0 mg/kg/injection, schedule: Q04DX002 (ip), vehicle: gum acacia 89 % of control

O=c1[nH]c2ccccc2c2ccccc12
inactive: [11] 92 % of control | [12] 97 % of control | [13] 95 % of control

O=C1NC2(CCCCC2)NC12CCCCC2
inactive: dose: 25.0 mg/kg/injection, schedule: Q01DX009 (ip), vehicle: saline 118 % of control | dose: 50.0 mg/kg/injection, schedule: Q01DX009 (ip), vehicle: saline 110 % of control | [14] 106 % of control

O=C(O)CSCc1ccc([N+](=O)[O-])cc1
inactive: [5] 100 % of control | [6] 100 % of control | [7] 100 % of control

CCC(=O)Oc1c(CC=C(C)C)c(OC(=O)CC)c2ccccc2c1OC(=O)CC
inactive: [1] 93 % of control | [5] 90 % of control | [2] 93 % of control | [6] 94 % of control | [3] 88 % of control | [7] 96 % of control

CC1(C)OCC(C(OC(=O)c2ccc([N+](=O)[O-])cc2)C(OC(=O)c2ccc([N+](=O)[O-])cc2)C2COC(C)(C)O2)O1 (stereo not given)
inactive: dose: 100.0 mg/kg/injection, schedule: Q01DX001 (ip), vehicle: Klucel (hydroxypropylcellulose) (HPC) 103 % of control | dose: 200.0 mg/kg/injection, schedule: Q01DX001 (ip), vehicle: Klucel (hydroxypropylcellulose) (HPC) 100 % of control | dose: 400.0 mg/kg/injection, schedule: Q01DX001 (ip), vehicle: Klucel (hydroxypropylcellulose) (HPC) 100 % of control

O=C(Nc1cc(S(=O)(=O)F)ccc1Cl)Oc1ccc([N+](=O)[O-])cc1
inactive: [11] 102 % of control | [12] 97 % of control | [13] 100 % of control

C1CCC(=[N+]2CCCC2)CC1
inactive: [14] 93 % of control | dose: 100.0 mg/kg/injection, schedule: Q04DX003 (ip), vehicle: saline 106 % of control | dose: 200.0 mg/kg/injection, schedule: Q01DX009 (ip), vehicle: saline 101 % of control | dose: 200.0 mg/kg/injection, schedule: Q04DX003 (ip), vehicle: saline 104 % of control | dose: 400.0 mg/kg/injection, schedule: Q01DX009 (ip), vehicle: saline 88 % of control | dose: 400.0 mg/kg/injection, schedule: Q04DX003 (ip), vehicle: saline 102 % of control

O=C1CCC(=O)N1c1ccc(Cl)cc1
inactive: dose: 12.5 mg/kg/injection, schedule: Q01DX009 (ip), vehicle: Klucel (hydroxypropylcellulose) (HPC) 107 % of control | dose: 25.0 mg/kg/injection, schedule: Q01DX009 (ip), vehicle: Klucel (hydroxypropylcellulose) (HPC) 98 % of control | [4] 101 % of control

CC(=O)OCc1ccc2ccccc2c1
inactive: [11] 101 % of control | [12] 106 % of control | [13] 101 % of control

CCCCCCCCCCCCCCCC(=O)NCC(C)NC(=O)CCCCCCCCCCCCCCC (stereo not given)
inactive: dose: 75.0 mg/kg/injection, schedule: Q01DX001 (ip), vehicle: saline 95 % of control | dose: 150.0 mg/kg/injection, schedule: Q01DX001 (ip), vehicle: saline 96 % of control | dose: 300.0 mg/kg/injection, schedule: Q01DX001 (ip), vehicle: saline 103 % of control

O=C(CCCC(=O)N/N=C/c1cccc(Cl)c1)N/N=C\c1cccc(Cl)c1
inactive: dose: 50.0 mg/kg/injection, schedule: Q01DX001 (ip), vehicle: other 90 % of control | dose: 100.0 mg/kg/injection, schedule: Q01DX001 (ip), vehicle: other 93 % of control | dose: 400.0 mg/kg/injection, schedule: Q01DX001 (ip), vehicle: other 88 % of control

N#Cc1ccccc1C(=O)O
inactive: [8] 95 % of control | [9] 102 % of control | [10] 96 % of control

CCCCC(C)(O)c1cc(OC)cc(OC)c1 (stereo not given)
inactive: dose: 100.0 mg/kg/injection, schedule: Q01DX001 (ip), vehicle: saline with Tween-80 104 % of control | dose: 200.0 mg/kg/injection, schedule: Q01DX001 (ip), vehicle: saline with Tween-80 97 % of control | dose: 400.0 mg/kg/injection, schedule: Q01DX001 (ip), vehicle: saline with Tween-80 87 % of control

N=C(OCCCO)C(=N)OCCCO
inactive: [11] 115 % of control | [12] 102 % of control | [13] 96 % of control
